According to ChEMBL document CHEMBL1127935, “Synthesis and antiproliferative activity of 15-oxoprostaglandins: Contribution of the -chain enone group to cytotoxicity” (Bioorg Med Chem Lett, 1994):

Each compound was assayed on K562 (assay: In vitro antiproliferative activity was measured on human leukemia K562 cells).
Format: functional, cell-based

First: CCCCC[C@H](O)/C=C/C1[C@H](O)CC(=O)[C@@H]1C/C=C\CCCC(=O)OC (stereo not given in full)
Second: CCCCC[C@H](O)/C=C/[C@H]1[C@H](O)CC(=O)[C@@H]1C/C=C\CCCC(=O)O [DINOPROSTONE]
The IC50 of the first is 1.5-fold lower: 41 µM for the first, 63 µM for the second. The first is the more potent here.

Compared with `CCCCCC(=O)/C=C/[C@H]1[C@H](O)CC(=O)[C@@H]1C/C=C\CCCC(=O)OC`, `CCCCCC(=O)/C=C/C1[C@H](O)C[C@H](O)[C@@H]1C/C=C\CCCC(=O)OC` (stereo not given in full) is 2.2-fold higher in IC50: 28 µM for the first, 61 µM for the second. The first is the more potent here.

Compared with `CCCCCC(=O)/C=C/[C@]1(O)C[C@@H](O)C=C1C/C=C\CCCC(=O)OC`, `CCCCC[C@H](O)/C=C/[C@]1(O)C[C@@H](O)C=C1C/C=C\CCCC(=O)OC` is 10-fold higher in IC50: 20 µM for the first, 201 µM for the second. The first is the more potent here.

Compared with `CCCCCC(=O)/C=C/C1[C@H](O)C[C@H](O)[C@@H]1C/C=C\CCCC(=O)O` (stereo not given in full), `CCCCC[C@H](O)/C=C/[C@@H]1[C@@H](C/C=C\CCCC(=O)O)[C@@H](O)C[C@H]1O` [DINOPROST] is higher in IC50: 362 µM for the first, over 700 µM for the second.

Compared with `CCCCC[C@H](O)/C=C/C1[C@H](O)C[C@H](O)[C@@H]1C/C=C\CCCC(=O)OC` (stereo not given in full), `CCCCCC(=O)/C=C/[C@]1(O)CC(=O)C=C1C/C=C\CCCC(=O)OC` is 15-fold lower in IC50: 99 µM for the first, 6.6 µM for the second. The second is the more potent here.
